Marks after values point to notes of the source that are not given here.
How the values were obtained:
Format in all cases: in vivo
Details in all cases: 100 = 100% disease control
[1] = tested on: Alternaria solani; test: Test D: tomato early blight, sprayed the day before inoculation, visual disease rating
Outline: (§1)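 Test rate was 200 ppm, sprayed to run-off and equal to 500 g/ha, or 40 ppm where marked. The compound was first taken up in acetone at 3% of final volume and suspended in acetone/purified water (50/50) containing 250 ppm Trem® 014.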

[2] = tested on: Puccinia recondita f. sp. tritici; test: Test H: wheat leaf rust, test suspension sprayed after inoculation of wheat seedlings, visual disease rating
Outline: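 Wheat seedlings inoculated with P. recondita spores, held 24 h saturated at 20 °C, then 2 days in growth chamber at 20 °C; compound suspension (acetone/water with Trem 014) sprayed to run-off afterwards. Rated visually; 200 ppm (≈500 g/ha) unless marked *, which denotes 40 ppm.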

[3] = tested on: Erysiphe graminis f. sp. tritici; test: Test J: wheat powdery mildew on wheat seedlings, sprayed the day before inoculation, visual disease rating
Outline: as §1

[4] = tested on: Septoria tritici; test: Test G: wheat leaf blotch on wheat seedlings, sprayed the day before inoculation, visual disease rating
Outline: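 Visual disease ratings taken 19 days after transfer to a 20° C growth chamber, following 48 h in saturated atmosphere at 24° C. Seedlings had been sprayed to run-off one day before spore inoculation. Dose 200 ppm, or 40 ppm where starred.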

[5] = tested on: Puccinia recondita f. sp. tritici; test: Test I: wheat leaf rust on wheat seedlings, sprayed the day before inoculation, visual disease rating
Outline: as §1

[6] = tested on: Septoria nodorum; test: Test F: wheat glume blotch on wheat seedlings, sprayed the day before inoculation, visual disease rating
Outline: as §1

[7] = tested on: Botrytis cinerea; test: Test C: tomato Botrytis on tomato seedlings, sprayed the day before inoculation, visual disease rating
Outline: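 Each compound is first taken up in acetone at 3% of the final volume and then brought to the desired ppm in a 50:50 acetone–water mix with 250 ppm surfactant (polyhydric alcohol esters). Tomato seedlings receive the suspension to run-off, normally at 200 ppm, occasionally 40 ppm.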

[8] = 200 ppm, 0 = no control relative to controls

SMILES: COc1cc(F)c(-n2c(Br)nc(C)c2-c2ccc(C)cc2)c(F)c1 [compound 525]
- Test D disease control rating ([1]; 40 ppm (marked *)): 100* %
- Test H disease control rating ([2]; 40 ppm (marked *)): 68* %
- Test J disease control rating ([3]; 40 ppm (marked *)): 98* %
- Test G disease control rating ([4]; 40 ppm (marked *)): 98* %
- Test I disease control rating ([5]; 40 ppm (marked *)): 100* %
- Test F disease control rating ([6]; 40 ppm (marked *)): 80* %
- Test C disease control rating ([7]; 40 ppm (marked *)): 100* %

SMILES: COc1ccc(F)c(-c2c(C)nc(Cl)n2-c2ccc(Cl)cc2)c1F [compound 526]
- Test D disease control rating [1, 8]: 100%
- Test H disease control rating [2, 8]: 0%
- Test J disease control rating [3, 8]: 100%
- Test G disease control rating [4, 8]: 99%
- Test I disease control rating [5, 8]: 100%
- Test F disease control rating [6, 8]: 100%
- Test C disease control rating [7, 8]: 100%

SMILES: COc1ccc(F)c(-c2c(Cl)ncn2-c2ccc(C#N)cc2)c1F [compound 527]
- Test D disease control rating [1, 8]: 99%
- Test H disease control rating [2, 8]: 37%
- Test J disease control rating [3, 8]: 88%
- Test G disease control rating [4, 8]: 95%
- Test I disease control rating [5, 8]: 91%
- Test F disease control rating [6, 8]: 0%
- Test C disease control rating [7, 8]: 100%

SMILES: COc1ccc(F)c(-c2c(Cl)ncn2-c2ccc(Br)cc2)c1F [compound 528]
- Test D disease control rating [1, 8]: 100%
- Test H disease control rating [2, 8]: 15%
- Test J disease control rating [3, 8]: 100%
- Test G disease control rating [4, 8]: 99%
- Test I disease control rating [5, 8]: 96%
- Test F disease control rating [6, 8]: 99%
- Test C disease control rating [7, 8]: 100%

SMILES: Cc1nc(Cl)c(-c2c(F)cccc2F)n1-c1ccc(SCCl)cc1 [compound 529]
- Test D disease control rating [1, 8]: 0%
- Test H disease control rating [2, 8]: 9%
- Test J disease control rating [3, 8]: 0%
- Test G disease control rating [4, 8]: 82%
- Test I disease control rating [5, 8]: 48%
- Test F disease control rating [6, 8]: 0%
- Test C disease control rating [7, 8]: 0%

SMILES: Cc1ncc(Cc2c(F)cc(F)cc2F)n1-c1ccc(Cl)cc1 [compound 530]
- Test D disease control rating [1, 8]: 0%
- Test H disease control rating [2, 8]: 0%
- Test J disease control rating [3, 8]: 71%
- Test G disease control rating [4, 8]: 58%
- Test I disease control rating [5, 8]: 88%
- Test F disease control rating [6, 8]: 0%
- Test C disease control rating [7, 8]: 0%

SMILES: Cc1nc(Cl)c(Cc2c(F)cc(F)cc2F)n1-c1ccc(Cl)cc1 [compound 531]
- Test D disease control rating [1, 8]: 0%
- Test H disease control rating [2, 8]: 41%
- Test J disease control rating [3, 8]: 95%
- Test G disease control rating [4, 8]: 99%
- Test I disease control rating [5, 8]: 99%
- Test F disease control rating [6, 8]: 0%
- Test C disease control rating [7, 8]: 100%

SMILES: Cc1nc(Br)c(Cc2c(F)cc(F)cc2F)n1-c1ccc(Cl)cc1 [compound 532]
- Test D disease control rating [1, 8]: 0%
- Test H disease control rating [2, 8]: 0%
- Test J disease control rating [3, 8]: 91%
- Test G disease control rating [4, 8]: 99%
- Test I disease control rating [5, 8]: 99%
- Test F disease control rating [6, 8]: 0%
- Test C disease control rating [7, 8]: 97%

SMILES: COc1cc(OC)cc(-n2c(Cc3c(F)cc(F)cc3F)cnc2C)c1 [compound 533]
- Test D disease control rating [1, 8]: 0%
- Test H disease control rating [2, 8]: 15%
- Test J disease control rating [3, 8]: 82%
- Test G disease control rating [4, 8]: 49%
- Test I disease control rating [5, 8]: 92%
- Test F disease control rating [6, 8]: 0%
- Test C disease control rating [7, 8]: 0%

SMILES: COc1cc(OC)cc(-n2c(C)nc(Cl)c2Cc2c(F)cc(F)cc2F)c1 [compound 534]
- Test D disease control rating [1, 8]: 0%
- Test H disease control rating [2, 8]: 0%
- Test J disease control rating [3, 8]: 0%
- Test G disease control rating [4, 8]: 2%
- Test I disease control rating [5, 8]: 0%
- Test F disease control rating [6, 8]: 0%
- Test C disease control rating [7, 8]: 38%

SMILES: COc1cc(OC)cc(-n2c(C)nc(Br)c2Cc2c(F)cc(F)cc2F)c1 [compound 535]
- Test D disease control rating [1, 8]: 0%
- Test H disease control rating [2, 8]: 0%
- Test J disease control rating [3, 8]: 0%
- Test G disease control rating [4, 8]: 2%
- Test I disease control rating [5, 8]: 0%
- Test F disease control rating [6, 8]: 0%
- Test C disease control rating [7, 8]: 0%

SMILES: Cc1ncc(Cc2c(F)cc(F)cc2F)n1-c1c(Cl)cccc1Cl [compound 536]
- Test D disease control rating [1, 8]: 68%
- Test H disease control rating [2, 8]: 37%
- Test J disease control rating [3, 8]: 98%
- Test G disease control rating [4, 8]: 90%
- Test I disease control rating [5, 8]: 98%
- Test F disease control rating [6, 8]: 0%
- Test C disease control rating [7, 8]: 89%

SMILES: Cc1nc(Cl)c(Cc2c(F)cc(F)cc2F)n1-c1c(Cl)cccc1Cl [compound 537]
- Test D disease control rating [1, 8]: 76%
- Test H disease control rating [2, 8]: 9%
- Test J disease control rating [3, 8]: 99%
- Test G disease control rating [4, 8]: 97%
- Test I disease control rating [5, 8]: 100%
- Test F disease control rating [6, 8]: 60%
- Test C disease control rating [7, 8]: 99%

SMILES: Cc1nc(Br)c(Cc2c(F)cc(F)cc2F)n1-c1c(Cl)cccc1Cl [compound 538]
- Test D disease control rating [1, 8]: 0%
- Test H disease control rating [2, 8]: 27%
- Test J disease control rating [3, 8]: 100%
- Test G disease control rating [4, 8]: 99%
- Test I disease control rating [5, 8]: 100%
- Test F disease control rating [6, 8]: 0%
- Test C disease control rating [7, 8]: 99%

SMILES: Cc1ncc(Cc2c(F)cc(F)cc2F)n1-c1cc(Cl)cc(Cl)c1 [compound 539]
- Test D disease control rating [1, 8]: 0%
- Test H disease control rating [2, 8]: 0%
- Test J disease control rating [3, 8]: 95%
- Test G disease control rating [4, 8]: 7%
- Test I disease control rating [5, 8]: 93%
- Test F disease control rating [6, 8]: 0%
- Test C disease control rating [7, 8]: 36%

SMILES: Cc1nc(Cl)c(Cc2c(F)cc(F)cc2F)n1-c1cc(Cl)cc(Cl)c1 [compound 540]
- Test D disease control rating [1, 8]: 0%
- Test H disease control rating [2, 8]: 0%
- Test J disease control rating [3, 8]: 21%
- Test G disease control rating [4, 8]: 3%
- Test I disease control rating [5, 8]: 0%
- Test F disease control rating [6, 8]: 0%
- Test C disease control rating [7, 8]: 15%
